Experimental data from BindingDB's records for doi:10.1016/j.bmcl.2013.06.023 (Northwest Agriculture & Forestry University, 2013).

Tests used:
[1] = molecular target: T1, G protein-activated inward rectifier potassium channel 1 (Homo sapiens, UniProt P48549); assay: Inhibition of GIRK1/2 (unknown origin)
T1 sequence (P48549 whole entry): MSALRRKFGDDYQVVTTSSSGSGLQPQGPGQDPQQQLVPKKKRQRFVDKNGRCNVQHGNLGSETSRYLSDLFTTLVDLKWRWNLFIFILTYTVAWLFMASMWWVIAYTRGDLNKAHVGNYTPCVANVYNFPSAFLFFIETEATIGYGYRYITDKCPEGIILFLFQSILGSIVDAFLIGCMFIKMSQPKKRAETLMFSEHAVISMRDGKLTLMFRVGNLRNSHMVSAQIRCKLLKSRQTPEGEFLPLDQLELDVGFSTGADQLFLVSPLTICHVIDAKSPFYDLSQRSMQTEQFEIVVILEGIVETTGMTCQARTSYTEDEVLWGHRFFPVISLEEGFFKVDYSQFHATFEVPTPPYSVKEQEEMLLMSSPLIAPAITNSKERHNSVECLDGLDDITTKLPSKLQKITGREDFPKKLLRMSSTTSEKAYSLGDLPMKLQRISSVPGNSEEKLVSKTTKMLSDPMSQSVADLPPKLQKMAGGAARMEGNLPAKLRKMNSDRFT

[2] = molecular target: T2, G protein-activated inward rectifier potassium channel 4 (Homo sapiens, UniProt P48544); assay: Inhibition of GIRK1/4 (unknown origin)
T2 sequence (P48544 whole entry): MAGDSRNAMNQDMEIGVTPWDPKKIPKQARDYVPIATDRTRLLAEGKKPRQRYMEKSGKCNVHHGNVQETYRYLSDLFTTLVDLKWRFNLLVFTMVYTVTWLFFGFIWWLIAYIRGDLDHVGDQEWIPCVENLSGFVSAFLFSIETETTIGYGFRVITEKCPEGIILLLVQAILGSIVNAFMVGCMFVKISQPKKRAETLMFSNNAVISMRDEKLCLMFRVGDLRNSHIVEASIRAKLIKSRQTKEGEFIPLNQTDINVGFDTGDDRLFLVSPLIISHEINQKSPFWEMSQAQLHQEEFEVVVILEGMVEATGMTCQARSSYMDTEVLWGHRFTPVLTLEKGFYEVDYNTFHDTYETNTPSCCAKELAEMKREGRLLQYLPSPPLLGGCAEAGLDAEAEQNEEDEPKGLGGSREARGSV

IC50 [1] [µM]	IC50 [2] [µM]	SMILES
30	30	O=C(Nc1ccc(F)c(F)c1)Nc1cc(C(F)(F)F)nn1-c1ccccc1
30	30	O=C(Nc1ccc(F)c(F)c1)Nc1cc(C2CCC2)nn1-c1ccccc1
30	30	O=C(Nc1ccc(F)c(F)c1)Nc1cc(-c2ccccc2)nn1-c1ccccc1
